# US10722520B2, “Heterocyclic compounds and their use in preventing or treating bacterial infections” (MUTABILIS, priority 2016, dated 2020)
# Counter-ions that a name gives are not always drawn. Like-named read-outs stand apart in the source and are kept apart here.
# Legend:
# SHV-1 = SHV-1 (Klebsiella pneumoniae, UniProt P0AD64)
# KPC-2 = KPC-2 (Klebsiella pneumoniae, UniProt Q9F663)
# AmpC (PAE) = AmpC (PAE) (Pseudomonas aeruginosa, UniProt P24735); test: biochemical
# AmpC (P99) = AmpC (P99) (Enterobacter cloacae, UniProt P05364); test: biochemical
# OXA-1 = OXA-1 (Escherichia coli, UniProt P13661)
# CMY-37 = CMY-37 (Citrobacter freundii, UniProt P05193); conditions: read-out: IC50 β-lactamase CMY-37
# OXA-15 = OXA-15 (Pseudomonas aeruginosa, UniProt Q51574); test: biochemical
# K. pneumoniae 6299 = test: MIC of compound alone, broth microdilution; type: cell-based; conditions: Klebsiella pneumoniae; strain 6299; compound alone; read-out: MIC compounds of the invention alone
# Protocol: (§1) Log phase bacterial suspensions were adjusted to a final density of 5×10^5 cfu/mL in cation-adjusted Mueller-Hinton broth (Becton-Dickinson) and added to each well (98 μL). Microplates were incubated for 16-20 h at 35° C. in ambient air. The MIC of the compounds was defined as the lowest concentration of said compounds that prevented bacterial growth as read by visual inspection.
# E. cloacae P99 = test: MIC of compound alone, broth microdilution; type: cell-based; conditions: Enterobacter cloacae; strain P99; compound alone; read-out: MIC compounds of the invention alone
# Protocol: as §1
# K. pneumoniae BAA-1898 = test: MIC of compound alone, broth microdilution; type: cell-based; conditions: Klebsiella pneumoniae, BAA1898; strain BAA-1898; compound alone; read-out: MIC compounds of the invention alone
# Protocol: as §1
# P. aeruginosa CIP107051 = test: MIC of compound alone, broth microdilution; type: cell-based; conditions: Pseudomonas aeruginosa; strain CIP107051; compound alone; read-out: MIC compounds of the invention alone
# Protocol: as §1
# E. coli 190317 = test: MIC of compound alone, broth microdilution; type: cell-based; conditions: Escherichia coli; strain 190317; compound alone; read-out: MIC compounds of the invention alone
# Protocol: as §1
# TEM-1 = TEM-1 (Escherichia coli, UniProt P62593)
# CTX-M-15 = CTX-M-15 (Escherichia coli, UniProt Q9EXV5)
# OXA-11 = OXA-11 (Pseudomonas aeruginosa, UniProt Q06778)
# OXA-48 = OXA-48 (Klebsiella pneumoniae, UniProt Q6XEC0)
# [1] = class (C), nitrocefin 200 μM, 30-min pre-incubation, enzyme 0.2 nM
SMILES,IC50 (SHV-1) [nM],IC50 (KPC-2) [nM],IC50 (AmpC (PAE)) [nM],IC50 (AmpC (P99)) [nM],IC50 (OXA-1) [nM],IC50 (CMY-37) [nM],IC50 (OXA-15) [nM],MIC (K. pneumoniae 6299) [µg/mL],MIC (E. cloacae P99) [µg/mL],MIC (K. pneumoniae BAA-1898) [µg/mL],MIC (P. aeruginosa CIP107051) [µg/mL],MIC (E. coli 190317) [µg/mL],IC50 (TEM-1) [nM],IC50 (CTX-M-15) [nM],IC50 (OXA-11) [nM],IC50 (OXA-48) [nM],IC50 (CMY-37; [1]) [nM]
"CC(=O)c1cnn(C2=CC3CN(C2)C(=O)N3OS(=O)(=O)[O-])c1.[Na+] (stereo not drawn) [Example 40, sodium [3-(4-acetylpyrazol-1-yl)-7-oxo-1,6-diazabicyclo[3.2.1]oct-3-en-6-yl]sulfate]",1.8,3.4,260,7.5,150,8.3,8.6,> 32,> 32,> 32,> 32,32,0.35,0.91,95,6.3,–
"NCCc1cnn(C2=CC3CN(C2)C(=O)N3OS(=O)(=O)O)c1 (stereo not drawn) [Example 41, [3-[4-(2-aminoethyl)pyrazol-1-yl]-7-oxo-1,6-diazabicyclo[3.2.1]oct-3-en-6-yl]hydrogen sulfate]",4.5,57,88,36,750,–,40,> 32,4,> 32,32,2,0.58,0.91,180,8.9,21
"O=C1N2CC(n3cc(N4CCNCC4)cn3)=CC(C2)N1OS(=O)(=O)O (stereo not drawn) [Example 42, 2,2,2-trifluoroacetate [7-oxo-3-(4-piperazin-4-ium-1-ylpyrazol-1-yl)-1,6-diazabicyclo[3.2.1]oct-3-en-6-yl]hydrogen sulfate]",1.5,76,180,86,1600,–,34,> 32,16,> 32,> 32,4,0.31,0.47,850,9.1,59
"[2H]c1nn(C2=CC3CN(C2)C(=O)N3OS(=O)(=O)[O-])c([2H])c1[2H].[Na+] (stereo not drawn) [Example 43, sodium [7-oxo-3-(3,4,5-trideuteriopyrazol-1-yl)-1,6-diazabicyclo[3.2.1]oct-3-en-6-yl]sulfate]",3.6,29,9.4,12,98,6.4,140,8,4,8,> 32,1,0.85,0.87,39,6,–
"O=C1N2CC(n3ncnn3)=CC(C2)N1OS(=O)(=O)[O-].[Na+] (stereo not drawn) [Example 44, sodium [7-oxo-3-(tetrazol-2-yl)-1,6-diazabicyclo[3.2.1]oct-3-en-6-yl]sulfate]",3.3,7.3,150,13,36,26,32,4,4,4,> 32,1,0.48,0.86,20,0.29,–
"NC(=O)Cc1ccn(C2=CC3CN(C2)C(=O)N3OS(=O)(=O)[O-])n1.[Na+] (stereo not drawn) [Example 45, sodium [3-[3-(2-amino-2-oxo-ethyl)pyrazol-1-yl]-7-oxo-1,6-diazabicyclo[3.2.1]oct-3-en-6-yl]sulfate]",4.5,47,66,32,300,19,310,> 32,16,32,> 32,4,1.4,1.3,92,18,–
"NCCONC(=O)c1ccn(C2=CC3CN(C2)C(=O)N3OS(=O)(=O)O)n1 (stereo not drawn) [Example 46, [3-[3-(2-aminoethoxycarbamoyl)pyrazol-1-yl]-7-oxo-1,6-diazabicyclo[3.2.1]oct-3-en-6-yl]hydrogen sulfate]",4,11,160,25,140,–,170,> 32,16,16,> 32,2,0.89,0.7,49,3.9,16
"O=C(NOCCO)c1ccn(C2=CC3CN(C2)C(=O)N3OS(=O)(=O)[O-])n1.[Na+] (stereo not drawn) [Example 47, sodium [3-[3-(2-hydroxyethoxycarbamoyl)pyrazol-1-yl]-7-oxo-1,6-diazabicyclo[3.2.1]oct-3-en-6-yl]sulfate]",9.1,12,480,32,200,32,160,32,32,32,> 32,8,1.5,1.1,100,6.7,–
"O=C(CO)Nc1ccn(C2=CC3CN(C2)C(=O)N3OS(=O)(=O)[O-])n1.[Na+] (stereo not drawn) [Example 50, sodium [3-[3-[(2-hydroxyacetyl)amino]pyrazol-1-yl]-7-oxo-1,6-diazabicyclo[3.2.1]oct-3-en-6-yl]sulfate]",5.6,12,67,12,79,5.9,60,16,16,32,> 32,8,1.2,0.59,11,5.7,–
"O=C(CCO)Nc1ccn(C2=CC3CN(C2)C(=O)N3OS(=O)(=O)[O-])n1.[Na+] (stereo not drawn) [Example 51, sodium [3-[3-(3-hydroxypropanoylamino)pyrazol-1-yl]-7-oxo-1,6-diazabicyclo[3.2.1]oct-3-en-6-yl]sulfate]",1.9,18,78,17,97,6.3,76,16,16,32,> 32,8,0.3,0.28,12,3.8,–
"NC(=O)CONC(=O)c1ccn(C2=CC3CN(C2)C(=O)N3OS(=O)(=O)[O-])n1.[Na+] (stereo not drawn) [Example 52, sodium [3-[3-[(2-amino-2-oxo-ethoxy)carbamoyl]pyrazol-1-yl]-7-oxo-1,6-diazabicyclo[3.2.1]oct-3-en-6-yl]sulfate]",9.1,11,110,16,310,8.8,260,16,16,32,> 32,8,1.9,0.67,130,7.5,–
"CNCc1cn(C2=CC3CN(C2)C(=O)N3OS(=O)(=O)O)nn1 (stereo not drawn) [Example 60, [3-[4-(methylaminomethyl)triazol-1-yl]-7-oxo-1,6-diazabicyclo[3.2.1]oct-3-en-6-yl]hydrogen sulfate]",2,14,330,27,130,–,8.1,> 32,1,> 32,32,0.5,0.35,0.73,130,1.2,68
